Entries after “also recorded” stand apart in the source; their conditions may differ.
Assays:
aromatase = target: T1, aromatase (Homo sapiens, UniProt P11511); experiment: Aromatase inhibition; conditions: clinical trials and non-clinical testing
T1 construct: endogenous in cells; host or cells: H295R adreno-cortical carcinoma cells; healthy human subjects in vivo
T1 sequence (P11511 1-503): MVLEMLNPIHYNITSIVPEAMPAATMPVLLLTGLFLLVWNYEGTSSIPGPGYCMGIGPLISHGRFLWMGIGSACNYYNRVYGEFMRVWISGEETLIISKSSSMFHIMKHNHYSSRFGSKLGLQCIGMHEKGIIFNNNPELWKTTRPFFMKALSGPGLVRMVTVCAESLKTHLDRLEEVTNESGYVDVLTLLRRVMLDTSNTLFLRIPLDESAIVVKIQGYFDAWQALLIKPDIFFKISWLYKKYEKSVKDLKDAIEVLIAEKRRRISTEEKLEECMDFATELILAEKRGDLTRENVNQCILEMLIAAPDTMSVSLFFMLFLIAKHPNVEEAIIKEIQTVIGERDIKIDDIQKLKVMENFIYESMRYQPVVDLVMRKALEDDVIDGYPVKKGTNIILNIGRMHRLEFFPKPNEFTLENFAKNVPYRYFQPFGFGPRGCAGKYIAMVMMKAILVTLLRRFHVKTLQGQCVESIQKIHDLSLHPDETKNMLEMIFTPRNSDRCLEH
Excerpt: Aromatase is an enzyme encoded by the CYP19A1 gene. It is located in the endoplasmic reticulum of estrogen-producing cells and catalyzes the rate-limiting step in the conversion of androgens to estrogens in many tissues. Aromatase is a cytochrome P-450 hemoprotein-containing enzyme complex that catalyzes the rate-limiting step in the production of estrogens, i.e. the conversion of androstenedione and testosterone, via three hydroxylation steps, to estrone and estradiol. Aromatase activity is present in many tissues, such as the ovaries, adipose tissue, muscle, liver, breast tissue, and in malignant breast tumors. The main sources of circulating estrogens are the ovaries in premenopausal women and adipose tissue in post-menopausal women. Aromatase catalyzes the conversion of androgens to estrone (E1), which is further converted to the potent estrogen estradiol (E2) by the enzyme 17β-HSD type 1 in the granulosa cell.
Aromatase is a key enzyme in the steroidogenic pathway that catalyzes the conversion of androgens, including testosterone, into estradiol. […]
Effects on circulating levels of estradiol and testosterone in male and female healthy subjects receiving Compound 1 or placebo for a treatment period of 14 days were evaluated. […] Testosterone and estradiol levels were assessed prior to dosing (baseline), and then on days 8, 14 and 17.

2,3-DPG blood levels = experiment: Phase 1: blood 2,3-DPG in SCD patients; type: in vivo, human
Procedure: In this study, SAD/MAD cohorts are randomized (3 to 1) to receive Compound 1 or placebo (P). Compound 1 was evaluated first in 4 healthy SAD cohorts and 4 healthy MAD (14-day dosing period) cohorts. Based on the safety, and PK/PD profile from HS, Compound 1 is then evaluated in 1 SCD SAD cohort and 2 SCD MAD cohorts. Specifically, based on the safety and pharmacokinetic/pharmacodynamics (PK/PD) profile in healthy volunteer studies, Compound 1 is evaluated in patients (pts) with SCD, first in a single dose (SD or SAD) cohort and then in multiple-dose (MD or MAD) cohorts (14-day and 12-week). Safety assessments include AEs, vital signs, ECGs and laboratory parameters. PK/PD blood sampling was performed on Day 1 (SAD/MAD) and Day 14 (MAD) and up to 72 h after the last dose and at the end-of-study visit. PD parameters included 2,3-DPG, ATP, and p50 in all cohorts with additional PD studies (including oxygen scan) performed only in the SCD cohorts. PD parameters included 2,3-DPG, ATP, p50, RBC deformability with controlled deoxygenation and reoxygenation (Lorrca® oxygen scan) and varying osmolality (Lorrca® osmoscan)). To maintain study blind, pt identifiers were removed when needed.
The onset of the increase in ATP blood levels after a single 700 mg dose of Compound 1 was faster in SCD patients than in healthy volunteers, while the onset of the decrease in 2,3-DPG blood levels was slower.
The following procedures are employed for the analysis of ATP and 2,3-DPG in human whole blood K2EDTA using a protein precipitation extraction procedure and analysis by LC-MS/MS.
The following procedures are used for sample extraction prior to analysis via LC-MS/MS. 15.0 μL of the calibration standards, quality controls, matrix blanks, and samples are aliquoted into a 96-well plate. 50.0 μL of the internal standard spiking solution is added to all samples on the plate, with the exception of the matrix blank samples; 50.0 μL of water is added to the matrix blank samples. Subsequently, 150 μL of water is added to all samples on the plate. The plate is then covered and agitated by vortex at high speed for ten minutes, after which 750 μL of methanol is added to all samples on the plate. The plate is covered and agitated by vortex for approximately 1 minute. The plate is then centrifuged at approximately 3500 RPM at approximately 4° C. for five minutes. After centrifugation, a liquid handler is used to transfer 50 μL of each sample to a new 96-well plate, and 200 μL of acetonitrile is added to all samples on the plate. The newly prepared plate is covered and agitated by vortex for approximately 1 minute. The plate is then centrifuged at approximately 3500 RPM at approximately 4° C. for 2 minutes.

SMILES: O=C([C@H](CO)c1ccccc1)N1CC2=C(C1)CN(S(=O)(=O)c1cnc3c(c1)OCCO3)C2 (single isomer, unassigned) [Compound 1]
- aromatase inhibition (aromatase): has not shown evidence of inhibition of aromatase; also recorded: absence of aromatase inhibition
- mean percentage change in 2,3-DPG blood levels (2,3-DPG blood levels; SCD 300 mg QD, Day 1, 0 h after first daily dose): 0%
- mean percentage change in 2,3-DPG blood levels (2,3-DPG blood levels; SCD 300 mg QD, Day 1, 24 h after first daily dose): −23%
- mean percentage change in 2,3-DPG blood levels (2,3-DPG blood levels; SCD 300 mg QD, Day 14, 0 h after first daily dose): −25%
- mean percentage change in 2,3-DPG blood levels (2,3-DPG blood levels; SCD 300 mg QD, Day 14, 6 h after first daily dose): −29%
- mean percentage change in 2,3-DPG blood levels (2,3-DPG blood levels; SCD 300 mg QD, Day 14, 24 h after first daily dose): −29%
- mean percentage change in 2,3-DPG blood levels (2,3-DPG blood levels; SCD 300 mg QD, Day 14, 48 h after first daily dose): −22%
- mean percentage change in 2,3-DPG blood levels (2,3-DPG blood levels; SCD single 700 mg, 0 h after dose): 0%
- mean percentage change in 2,3-DPG blood levels (2,3-DPG blood levels; SCD single 700 mg, 6 h after dose): −16%
- mean percentage change in 2,3-DPG blood levels (2,3-DPG blood levels; SCD single 700 mg, 24 h after dose): −31%
- mean percentage change in 2,3-DPG blood levels (2,3-DPG blood levels; SCD single 700 mg, 48 h after dose): −21%
- mean percentage change in 2,3-DPG blood levels (2,3-DPG blood levels; SCD single 700 mg, 72 h after dose): −8%
- lag of maximum decrease in blood 2,3-DPG behind maximum plasma concentration (2,3-DPG blood levels; SCD single 700 mg, FIG. 54B): about 24 hours
- decrease in 2,3-DPG blood concentrations (2,3-DPG blood levels; SCD, 24 hours after single 700-mg dose, FIG. 46A): 26%

Source: US12128035B2, “Activating pyruvate kinase R” (Novo Nordisk Health Care AG, priority 2021, dated 2024)
